Values quoted from earlier work, collected in patent US20120134921A1, “SOLID COMPOSITIONS COMPRISING 5-AMINOLEVULINIC ACID” (Photocure ASA, priority 2009, published 2012).

How the values were obtained:
[1] = test system: pre-malignant conditions in the colon; details: enemas, 5-ALA hexyl ester in sterile phosphate buffered saline
[2] = test system: dysplastic lesions; details: sterile solution administered as local probe, chronic colitis rat models

CCCCCCOC(=O)CCC(=O)CN [5-ALA hexyl ester, n-hexyl aminolevulinic acid ester]
More polyps detected by PDD than with white light endoscopic imaging [1]: 28% | Sensitivity of detection of dysplastic lesions by fluorescence [2]: 60% | Specificity of detection of dysplastic lesions by fluorescence [2]: 51%
